Our source for the MIC, Activity and hemolysis values is ChEMBL document CHEMBL5257131, “Quantum Annealing Designs Nonhemolytic Antimicrobial Peptides in a Discrete Latent Space” (ACS Med Chem Lett, 2023).

For one series, the system named is Escherichia coli. Nature of the series: Antimicrobial activity against Escherichia coli assessed as inhibition of microbial growth incubated for 26 hrs by micro-dilution test. The format is functional.
Series [1] in a line: Hemolytic activity in rabbit RBC assessed as hemolysis at 100 uM incubated for 6 hrs by Uv-vis spectrophotometric analysis. To be noted: erythrocyte. The class given is toxicity, cell-based, Oryctolagus cuniculus.
Series [2] can be described thus: Hemolytic activity in human erythrocytes assessed as hemolysis at 1 uM incubated for 1 hrs by spectrophotometric analysis relative to control. To be noted: read-out: Activity. The format is toxicity, cell-based, Erythrocyte.

Structures are written as SMILES. Peptide text beside a SMILES is read from it.

The term MIC denotes the lowest concentration found to suppress growth. Take `CC(C)C[C@H](NC(=O)[C@H](CC(N)=O)NC(=O)[C@H](CCCCN)NC(=O)[C@H](CC(C)C)NC(=O)[C@@H](NC(=O)[C@H](CCCCN)NC(=O)[C@H](Cc1ccccc1)NC(=O)CN)[C@@H](C)O)C(=O)N[C@@H](C)C(=O)N[C@@H](CCCCN)C(=O)N[C@@H](CCCCN)C(=O)N[C@H](C(=O)N[C@@H](C)C(=O)N[C@@H](CCCCN)C(=O)N[C@@H](CCCCN)C(=O)N[C@H](C(=O)N[C@@H](CC(C)C)C(=O)N[C@@H](CCCCN)C(=O)N[C@@H](C)C(=O)N[C@H](C(=O)N[C@@H](CCCNC(=N)N)C(=O)O)C(C)C)C(C)C)C(C)C` (H-GFKTLKNLAKKVAKKVLKAVR-OH): the minimal inhibitory concentration (MIC) in the series on Escherichia coli was found to be 6.25 µg/mL. For the same compound, the Activity entry in series [1] is listed as “Non-Toxic”.

In the case of `CC[C@H](C)[C@H](NC(=O)CNC(=O)[C@H](CCCCN)NC(=O)[C@H](C)NC(=O)[C@@H](NC(=O)[C@H](CCCCN)NC(=O)[C@H](CCCCN)NC(=O)[C@H](CC(C)C)NC(=O)[C@@H](NC(=O)[C@@H](NC(=O)[C@@H](NC(=O)[C@H](CC(C)C)NC(=O)CN)C(C)C)[C@@H](C)O)C(C)C)C(C)C)C(=O)N[C@H](C(=O)N[C@@H](CCCCN)C(=O)N[C@H](C(=O)N[C@@H](C)C(=O)N[C@@H](CO)C(=O)N[C@@H](CCCCN)C(=O)N[C@H](C(=O)NCC(=O)N[C@@H](CO)C(=O)N[C@@H](CCCCN)C(=O)N[C@@H](CCC(=O)O)C(=O)N[C@@H](CC(C)C)C(=O)O)C(C)C)[C@@H](C)O)C(C)C` (H-GLVTVLKKVAKGIVKTASKVGSKEL-OH), the minimal inhibitory concentration (MIC) in the series on Escherichia coli was greater than 100 µg/mL.

On to `CC[C@H](C)[C@H](NC(=O)CN)C(=O)NCC(=O)N[C@@H](C)C(=O)N[C@H](C(=O)N[C@@H](CC(C)C)C(=O)N[C@@H](CCCCN)C(=O)N[C@H](C(=O)N[C@@H](CC(C)C)C(=O)N[C@H](C(=O)N[C@H](C(=O)NCC(=O)N[C@@H](CC(C)C)C(=O)N1CCC[C@H]1C(=O)N[C@@H](C)C(=O)N[C@@H](CC(C)C)C(=O)N[C@H](C(=O)N[C@@H](CO)C(=O)N[C@@H](Cc1c[nH]c2ccccc12)C(=O)N[C@H](C(=O)N[C@@H](CCCCN)C(=O)N[C@@H](CCCNC(=N)N)C(=O)N[C@@H](CCCCN)C(=O)N[C@@H](CCCNC(=N)N)C(=O)N[C@@H](CCC(N)=O)C(=O)N[C@@H](CCC(N)=O)C(N)=O)[C@@H](C)CC)[C@@H](C)CC)[C@@H](C)O)[C@@H](C)O)C(C)C)C(C)C` [MELITTIN], for which, in series [2], the hemolysis at 1 h, 1 µM was 90%.

With `CC1(C)S[C@@H]2[C@H](NC(=O)[C@H](N)c3ccccc3)C(=O)N2[C@H]1C(=O)O` [AMPICILLIN], the minimal inhibitory concentration (MIC) in the series with Escherichia coli was found to be 6.25 µg/mL.
